# Data published in PMC10465233, “Lys-urea-Aad, Lys-urea-Cmc and Lys-urea-Cms as potential pharmacophores for the design of PSMA-targeted radioligands to reduce off-target uptake in kidneys and salivary glands” (Theranostics, 2023).
# How the values were obtained:
# LNCaP tumor-bearing mice [1] = assay: Radioligand therapy study in LNCaP tumor-bearing mice; type: in vivo, mouse
# Procedure: (§1) Imaging, biodistribution and radioligand therapy experiments were performed following previously published procedures using male NOD-scid IL2Rg^null (NSG) or NOD.Cg-Rag1^tm1MomIl2rg^tm1Wjl/SzJ (NRG) mice [10]-[12],[14]-[15]. The experiments were conducted according to the guidelines established by the Canadian Council on Animal Care and approved by Animal Ethics Committee of the University of British Columbia. The mice were briefly sedated by inhalation of 2% isoflurane in oxygen, and implanted subcutaneously with 1×10^7 LNCaP cells behind the left shoulder. The mice were imaged or used in biodistribution studies when the tumor grew to 5-8 mm in diameter over a period of 4-5 weeks.
# For radiotherapy study, tumor-bearing mice were injected with saline (the control group), [^177Lu]Lu-PSMA-617 (37 MBq) or [^177Lu]-HTK03170 (37, 18.5 and 9.3 MBq) (n = 7-8 per treatment group). Tumor size and body weight were measured twice a week from the date of injection (Day 0) until completion of the study (Day 180). Endpoint criteria were defined as > 20% weight loss, tumor volume > 1000 mm^3, or active ulceration of the tumor.
# [2] = Radiation dosimetry for major organs of 25-g mice (OLINDA, MOBY phantom); type: in vivo, mouse
# Procedure: Internal dosimetry estimates were calculated using the organ level internal dose assessment (OLINDA) software v.2.2 following our previously published procedures. These estimates were performed for the mouse using the 25g MOBY phantom, and for the tumors using the previously reported unit density sphere model. Both the phantom and the sphere model are available in OLINDA and require the input of the total number of decays normalized by injected activity in units of MBq×h/MBq for each of the source organ/tumor.
# The biodistribution data (available in Table S5-S7) were used to determine the kinetics input values required by OLINDA. First, each of the values was decayed to its corresponding time point (the values on the table are shown at injection time). Then the different time-points of the uptake data (%ID/g) for each organ were fitted to both mono-exponential (%ID/g = ae^⎯bt) and bi-exponential (%ID/g = ae^⎯bt + ce^⎯dt) functions using in-house software developed in Python. The best fit was selected based on maximizing the coefficient of determination (R^2) of the fit and minimizing the residuals. The areas under the curves were analytically calculated based on the parameters obtained from the best fit of each organ and this provided the kinetic input values required by OLINDA.
# In the mouse case, the adrenals, blood, fat, and muscle are not modeled in the phantom. These organs were grouped together and included in what OLINDA calls the remainder of the body. Lastly, the numbers of decays in the tumors were also calculated based on the biodistribution data of the mice and the values were inputted into the sphere model available in OLINDA.
# LNCaP tumor-bearing mice [3] = assay: Ex vivo biodistribution in LNCaP tumor-bearing mice; parameters: species or system mouse
# Procedure: as §1
# For biodistribution studies, the mice were injected with the radioligand (2-4 MBq) as described above. For blocking, the mice were co-injected with nonradioactive DCFPyL (0.5 mg). At predetermined time points, the mice were sedated by isoflurane inhalation and euthanized by CO2 inhalation. Blood was withdrawn by cardiac puncture, and organs/tissues of interest were collected, weighed and counted using an automatic gamma counter (Tables S4-S7).
compound,measurement,setting,value
COc1ccc(CCCC(=O)NCC(=O)N[C@@H](CCCCNC(=O)CN2CCN(CC(=O)[O-])CCN(CC(=O)[O-])CCN(CC(=O)[O-])CC2)C(=O)NC[C@H]2CC[C@H](C(=O)N[C@@H](Cc3c4ccccc4cc4ccccc34)C(=O)NCCCC[C@H](NC(=O)N[C@@H](CCCC(=O)O)C(=O)O)C(=O)O)CC2)cc1.[177Lu+3] [[^177Lu]Lu-HTK03170],Median survival,LNCaP tumor-bearing mice [1]; 9.3 MBq injected,90 days
same,Median survival,LNCaP tumor-bearing mice [1]; 18.5 MBq injected,131 days
same,Body weight of the treated mice,LNCaP tumor-bearing mice [1]; 37 MBq injected,continuously increasing body weight
same,Median survival,LNCaP tumor-bearing mice [1]; 37 MBq injected,> 180 days
same,Kinetics value,[2]; source organ Brain,2.55E-02 MBq-h/MBq
same,Kinetics value,[2]; source organ Cortical bone,1.91E-01 MBq-h/MBq
same,Kinetics value,[2]; source organ Heart,7.94E-02 MBq-h/MBq
same,Kinetics value,[2]; source organ Kidneys,1.33E+00 MBq-h/MBq
same,Kinetics value,[2]; source organ Large intestine contents,1.12E-01 MBq-h/MBq
same,Kinetics value,[2]; source organ Liver,1.24E+00 MBq-h/MBq
same,Kinetics value,[2]; source organ Lungs,6.60E-02 MBq-h/MBq
same,Kinetics value,[2]; source organ Pancreas,4.12E-02 MBq-h/MBq
same,Kinetics value,[2]; source organ Remainder of the body,4.23E+00 MBq-h/MBq
same,Kinetics value,[2]; source organ Small intestine,3.35E-01 MBq-h/MBq
same,Kinetics value,[2]; source organ Spleen,1.04E-01 MBq-h/MBq
same,Kinetics value,[2]; source organ Stomach,1.32E-02 MBq-h/MBq
same,Kinetics value,[2]; source organ Testes,9.21E-02 MBq-h/MBq
same,Kinetics value,[2]; source organ Thyroid,5.15E-03 MBq-h/MBq
same,Kinetics value,[2]; source organ Urinary bladder,1.11E+00 MBq-h/MBq
same,Adrenal glands uptake,LNCaP tumor-bearing mice [3]; 1 h post-injection,3.34 ± 0.45 %ID/g
same,Blood uptake,LNCaP tumor-bearing mice [3]; 1 h post-injection,16.9 ± 1.97 %ID/g
same,Blood:Salivary gland uptake ratio,LNCaP tumor-bearing mice [3]; 1 h post-injection,7.04 ± 0.86
same,Bone uptake,LNCaP tumor-bearing mice [3]; 1 h post-injection,0.89 ± 0.27 %ID/g
same,Brain uptake,LNCaP tumor-bearing mice [3]; 1 h post-injection,0.23 ± 0.04 %ID/g
same,Fat uptake,LNCaP tumor-bearing mice [3]; 1 h post-injection,1.38 ± 0.45 %ID/g
same,Heart uptake,LNCaP tumor-bearing mice [3]; 1 h post-injection,3.60 ± 0.52 %ID/g
same,Intestines uptake,LNCaP tumor-bearing mice [3]; 1 h post-injection,1.19 ± 0.25 %ID/g
same,Kidneys uptake,LNCaP tumor-bearing mice [3]; 1 h post-injection,13.2 ± 1.87 %ID/g
same,Lacrimal glands uptake,LNCaP tumor-bearing mice [3]; 1 h post-injection,0.27 ± 0.08 %ID/g
same,Liver uptake,LNCaP tumor-bearing mice [3]; 1 h post-injection,2.67 ± 0.37 %ID/g
same,Lungs uptake,LNCaP tumor-bearing mice [3]; 1 h post-injection,8.06 ± 1.48 %ID/g
same,Muscle uptake,LNCaP tumor-bearing mice [3]; 1 h post-injection,1.15 ± 0.19 %ID/g
same,Pancreas uptake,LNCaP tumor-bearing mice [3]; 1 h post-injection,1.41 ± 0.31 %ID/g
same,Salivary glands uptake,LNCaP tumor-bearing mice [3]; 1 h post-injection,2.43 ± 0.33 %ID/g
same,Spleen uptake,LNCaP tumor-bearing mice [3]; 1 h post-injection,1.64 ± 0.83 %ID/g
same,Stomach uptake,LNCaP tumor-bearing mice [3]; 1 h post-injection,0.59 ± 0.12 %ID/g
same,Testes uptake,LNCaP tumor-bearing mice [3]; 1 h post-injection,2.17 ± 0.32 %ID/g
same,Thyroid uptake,LNCaP tumor-bearing mice [3]; 1 h post-injection,2.90 ± 0.41 %ID/g
same,Tumor uptake,LNCaP tumor-bearing mice [3]; 1 h post-injection,27.2 ± 7.55 %ID/g
same,Tumor:Blood uptake ratio,LNCaP tumor-bearing mice [3]; 1 h post-injection,1.58 ± 0.26
same,Tumor:Kidney uptake ratio,LNCaP tumor-bearing mice [3]; 1 h post-injection,2.07 ± 0.55
same,Tumor:Muscle uptake ratio,LNCaP tumor-bearing mice [3]; 1 h post-injection,23.5 ± 4.66
same,Tumor:Salivary gland uptake ratio,LNCaP tumor-bearing mice [3]; 1 h post-injection,11.3 ± 2.76
same,Adrenal glands uptake,LNCaP tumor-bearing mice [3]; 4 h post-injection,1.78 ± 0.45 %ID/g
same,Blood uptake,LNCaP tumor-bearing mice [3]; 4 h post-injection,8.34 ± 1.67 %ID/g
same,Blood:Salivary gland uptake ratio,LNCaP tumor-bearing mice [3]; 4 h post-injection,6.48 ± 1.02
same,Bone uptake,LNCaP tumor-bearing mice [3]; 4 h post-injection,0.45 ± 0.13 %ID/g
same,Brain uptake,LNCaP tumor-bearing mice [3]; 4 h post-injection,0.13 ± 0.03 %ID/g
same,Fat uptake,LNCaP tumor-bearing mice [3]; 4 h post-injection,0.60 ± 0.13 %ID/g
same,Heart uptake,LNCaP tumor-bearing mice [3]; 4 h post-injection,1.91 ± 0.40 %ID/g
same,Intestines uptake,LNCaP tumor-bearing mice [3]; 4 h post-injection,0.61 ± 0.17 %ID/g
same,Kidneys uptake,LNCaP tumor-bearing mice [3]; 4 h post-injection,9.23 ± 2.18 %ID/g
same,Lacrimal glands uptake,LNCaP tumor-bearing mice [3]; 4 h post-injection,0.15 ± 0.07 %ID/g
same,Liver uptake,LNCaP tumor-bearing mice [3]; 4 h post-injection,1.89 ± 0.69 %ID/g
same,Lungs uptake,LNCaP tumor-bearing mice [3]; 4 h post-injection,4.35 ± 0.82 %ID/g
same,Muscle uptake,LNCaP tumor-bearing mice [3]; 4 h post-injection,0.58 ± 0.13 %ID/g
same,Pancreas uptake,LNCaP tumor-bearing mice [3]; 4 h post-injection,0.74 ± 0.18 %ID/g
same,Salivary glands uptake,LNCaP tumor-bearing mice [3]; 4 h post-injection,1.31 ± 0.30 %ID/g
same,Spleen uptake,LNCaP tumor-bearing mice [3]; 4 h post-injection,0.96 ± 0.29 %ID/g
same,Stomach uptake,LNCaP tumor-bearing mice [3]; 4 h post-injection,0.42 ± 0.15 %ID/g
same,Testes uptake,LNCaP tumor-bearing mice [3]; 4 h post-injection,1.83 ± 0.58 %ID/g
same,Thyroid uptake,LNCaP tumor-bearing mice [3]; 4 h post-injection,1.62 ± 0.42 %ID/g
same,Tumor uptake,LNCaP tumor-bearing mice [3]; 4 h post-injection,47.6 ± 13.5 %ID/g
same,Tumor:Blood uptake ratio,LNCaP tumor-bearing mice [3]; 4 h post-injection,5.81 ± 1.58
same,Tumor:Kidney uptake ratio,LNCaP tumor-bearing mice [3]; 4 h post-injection,5.38 ± 1.91
same,Tumor:Muscle uptake ratio,LNCaP tumor-bearing mice [3]; 4 h post-injection,83.1 ± 17.0
same,Tumor:Salivary gland uptake ratio,LNCaP tumor-bearing mice [3]; 4 h post-injection,36.4 ± 5.35
same,Adrenal glands uptake,LNCaP tumor-bearing mice [3]; 24 h post-injection,0.50 ± 0.16 %ID/g
same,Blood uptake,LNCaP tumor-bearing mice [3]; 24 h post-injection,0.59 ± 0.13 %ID/g
same,Blood:Salivary gland uptake ratio,LNCaP tumor-bearing mice [3]; 24 h post-injection,2.11 ± 0.47
